From US20210267944A1 (BioXcel Therapeutics, Inc., priority 2018, published 2021)
Counter-ions that a name gives are not always drawn. Like-named read-outs stand apart in the source and are kept apart here.

Conditions: for Respiration rate, Min / Systolic blood pressure, Max / Systolic blood pressure, Mean ± SD / Systolic blood pressure, Median / Systolic blood pressure, Min / Diastolic blood pressure Max / Diastolic blood pressure Mean ± SD / Diastolic blood pressure Median / Diastolic blood pressure Min / Pulse rate, Max / Pulse rate, Mean ± SD / Pulse rate, Median / Pulse rate, Min / Respiration rate, Max / Respiration rate, Mean ± SD / Respiration rate, Median: SDAT patients, IV infusion; for Subject stopping Criteria met (safety stoppage rule): subject 102
Protocol: Study drug IV infusion was to be stopped at any time if any of the following occurred: • There was more than 20 mm Hg decrease in systolic or diastolic blood pressure. • There was an isolated drop in Systolic BP<100 mm of Hg. • There was an isolated drop Diastolic BP<60 mm of Hg. • There was a decrease in heart rate of 20 beats per minute or a drop below 50 beats per minute. • Attainment of a RASS of −1 at the end of each 30 minutes infusion period.
Return to baseline parameters was defined as BP falling within 15 mm of Hg of baseline reading prior to drug administration or HR falling within 10 beats per minute of baseline reading prior to drug administration.

Cc1cccc([C@H](C)c2cnc[nH]2)c1C [dexmedetomidine hydrochloride]
Respiration rate, Min (01:15 Hr): 15 breaths/min | Systolic blood pressure, Max (01:15 Hr): 152 mm of Hg | Systolic blood pressure, Mean ± SD (01:15 Hr): 135.6 ± 13.94 mm of Hg | Systolic blood pressure, Median (01:15 Hr): 141.0 mm of Hg | Systolic blood pressure, Min (01:15 Hr): 110 mm of Hg | Diastolic blood pressure Max (01:30 Hr): 84 mm of Hg | Diastolic blood pressure Mean ± SD (01:30 Hr): 70.6 ± 8.14 mm of Hg | Diastolic blood pressure Median (01:30 Hr): 70.0 mm of Hg | Diastolic blood pressure Min (01:30 Hr): 62 mm of Hg | Pulse rate, Max (01:30 Hr): 94 beats/min | Pulse rate, Mean ± SD (01:30 Hr): 72.0 ± 14.66 beats/min | Pulse rate, Median (01:30 Hr): 71.0 beats/min | Pulse rate, Min (01:30 Hr): 52 beats/min | Respiration rate, Max (01:30 Hr): 25 breaths/min | Respiration rate, Mean ± SD (01:30 Hr): 18.6 ± 3.38 breaths/min | Respiration rate, Median (01:30 Hr): 19.0 breaths/min | Respiration rate, Min (01:30 Hr): 15 breaths/min | Systolic blood pressure, Max (01:30 Hr): 156 mm of Hg | Systolic blood pressure, Mean ± SD (01:30 Hr): 130.9 ± 13.44 mm of Hg | Systolic blood pressure, Median (01:30 Hr): 129.5 mm of Hg | Systolic blood pressure, Min (01:30 Hr): 112 mm of Hg | Diastolic blood pressure Max (01:45 Hr): 86 mm of Hg | Diastolic blood pressure Mean ± SD (01:45 Hr): 69.5 ± 11.82 mm of Hg | Diastolic blood pressure Median (01:45 Hr): 66.0 mm of Hg | Diastolic blood pressure Min (01:45 Hr): 60 mm of Hg | Pulse rate, Max (01:45 Hr): 100 beats/min | Pulse rate, Mean ± SD (01:45 Hr): 79.0 ± 14.23 beats/min | Pulse rate, Median (01:45 Hr): 79.0 beats/min | Pulse rate, Min (01:45 Hr): 61 beats/min | Respiration rate, Max (01:45 Hr): 23 breaths/min | Respiration rate, Mean ± SD (01:45 Hr): 18.6 ± 2.51 breaths/min | Respiration rate, Median (01:45 Hr): 18.0 breaths/min | Respiration rate, Min (01:45 Hr): 17 breaths/min | Systolic blood pressure, Max (01:45 Hr): 158 mm of Hg | Systolic blood pressure, Mean ± SD (01:45 Hr): 131.3 ± 23.43 mm of Hg | Systolic blood pressure, Median (01:45 Hr): 131.0 mm of Hg | Systolic blood pressure, Min (01:45 Hr): 105 mm of Hg | Diastolic blood pressure Max (02:00 Hr): 86 mm of Hg | Diastolic blood pressure Mean ± SD (02:00 Hr): 78.7 ± 11.02 mm of Hg | Diastolic blood pressure Median (02:00 Hr): 84.0 mm of Hg | Diastolic blood pressure Min (02:00 Hr): 66 mm of Hg | Pulse rate, Max (02:00 Hr): 94 beats/min | Pulse rate, Mean ± SD (02:00 Hr): 77.3 ± 20.82 beats/min | Pulse rate, Median (02:00 Hr): 84.0 beats/min | Pulse rate, Min (02:00 Hr): 54 beats/min | Respiration rate, Max (02:00 Hr): 20 breaths/min | Respiration rate, Mean ± SD (02:00 Hr): 18.3 ± 1.53 breaths/min | Respiration rate, Median (02:00 Hr): 18.0 breaths/min | Respiration rate, Min (02:00 Hr): 17 breaths/min | Systolic blood pressure, Max (02:00 Hr): 156 mm of Hg | Systolic blood pressure, Mean ± SD (02:00 Hr): 143.3 ± 17.01 mm of Hg | Systolic blood pressure, Median (02:00 Hr): 150.0 mm of Hg | Systolic blood pressure, Min (02:00 Hr): 124 mm of Hg | Diastolic blood pressure Max (02:15 Hr): 85 mm of Hg | Diastolic blood pressure Mean ± SD (02:15 Hr): 69.7 ± 13.28 mm of Hg | Diastolic blood pressure Median (02:15 Hr): 62.0 mm of Hg | Diastolic blood pressure Min (02:15 Hr): 62 mm of Hg | Pulse rate, Max (02:15 Hr): 94 beats/min | Pulse rate, Mean ± SD (02:15 Hr): 74.3 ± 21.13 beats/min | Pulse rate, Median (02:15 Hr): 77.0 beats/min | Pulse rate, Min (02:15 Hr): 52 beats/min | Respiration rate, Max (02:15 Hr): 20 breaths/min | Respiration rate, Mean ± SD (02:15 Hr): 19.3 ± 1.15 breaths/min | Respiration rate, Median (02:15 Hr): 20.0 breaths/min | Respiration rate, Min (02:15 Hr): 18 breaths/min | Systolic blood pressure, Max (02:15 Hr): 159 mm of Hg | Systolic blood pressure, Mean ± SD (02:15 Hr): 142.7 ± 20.98 mm of Hg | Systolic blood pressure, Median (02:15 Hr): 150.0 mm of Hg | Systolic blood pressure, Min (02:15 Hr): 119 mm of Hg | Diastolic blood pressure Max (02:30 Hr): 83 mm of Hg | Diastolic blood pressure Mean ± SD (02:30 Hr): 76.5 ± 9.19 mm of Hg | Diastolic blood pressure Median (02:30 Hr): 76.5 mm of Hg | Diastolic blood pressure Min (02:30 Hr): 70 mm of Hg | Pulse rate, Max (02:30 Hr): 96 beats/min | Pulse rate, Mean ± SD (02:30 Hr): 85.5 ± 14.85 beats/min | Pulse rate, Median (02:30 Hr): 85.5 beats/min | Pulse rate, Min (02:30 Hr): 75 beats/min | Respiration rate, Max (02:30 Hr): 20, 20 breaths/min | Respiration rate, Mean ± SD (02:30 Hr): 20.0 ± 0.00 breaths/min | Respiration rate, Median (02:30 Hr): 20.0 breaths/min | Respiration rate, Min (02:30 Hr): 20, 20 breaths/min | Systolic blood pressure, Max (02:30 Hr): 154 mm of Hg | Systolic blood pressure, Mean ± SD (02:30 Hr): 153.0 ± 1.41 mm of Hg | Systolic blood pressure, Median (02:30 Hr): 153.0 mm of Hg | Systolic blood pressure, Min (02:30 Hr): 152 mm of Hg | Diastolic blood pressure mean values, in words (SDAT, during infusion): within clinically acceptable limits | Pulse rate mean values, in words (SDAT, during infusion): within clinically acceptable limits | Respiration rate values, in words (SDAT, during infusion): within clinically acceptable limits | Systolic blood pressure mean values, in words (SDAT, during infusion): within clinically acceptable limits | Subject stopping Criteria met (safety stoppage rule) (SDAT): only one subject's systolic BP reduced by more than 20 mm of Hg | Subject stopping Criteria met (safety stoppage rule) (SDAT, listed as Test): SBP >20 mm of Hg decrease | time for systolic BP to return to baseline levels after infusion was stopped (SDAT, the one subject with SBP decrease >20 mm of Hg): ≤ 10 min
